Measured values as given in ChEMBL document CHEMBL4376834, “Discovery of 4H-Chromen-4-one Derivatives as a New Class of Selective Rho Kinase (ROCK) Inhibitors, which Showed Potent Activity in ex Vivo Diabetic Retinopathy Models” (J Med Chem, 2019).

Key:
CDK3/Cyclin E = CDK3/Cyclin E (Homo sapiens, UniProt Q00526); experiment: Inhibition of recombinant full length human CDK3/CyclinE using Histone H1 as substrate incubated for 40 mins in presence of [gamma-33ATP] by radiometric scintillation counting analysis; type: protein-complex assay
Activated CDC42 kinase 1 = Activated CDC42 kinase 1 (Homo sapiens, UniProt Q07912); experiment: Inhibition of human recombinant ACK1 (1 to 389 residues) using EFPIYDFLPAKKK as substrate incubated for 40 mins in presence of [gamma-33P]ATP by radiometric scintillation counting analysis
[1] = target: Maternal embryonic leucine zipper kinase (Homo sapiens, UniProt Q14680); experiment: Inhibition of recombinant human MELK (1 to 340 residues) using KKLNRTLSFAEPG as substrate incubated for 40 mins in presence of [gamma-33ATP by radiometric scintillation counting analysis
[2] = target: Proto-oncogene tyrosine-protein kinase Src (Homo sapiens, UniProt P12931, T341M); experiment: Inhibition of recombinant full length human SRC T341M mutant using GGEEEEYFELVKK as substrate incubated for 40 mins in presence of [gamma33P]ATP by radiometric scintillation counting analysis
[3] = target: cGMP-dependent protein kinase 2 (Homo sapiens, UniProt Q13237); experiment: Inhibition of recombinant full-length human PRKG2 using KKLRRTLSFAEPG as substrate incubated for 40 mins in presence of [gamma33P]ATP by radiometric scintillation counting analysis
[4] = target: Homeodomain-interacting protein kinase 2 (Homo sapiens, UniProt Q9H2X6); experiment: Inhibition of human recombinant HIPK2 I471N mutant (165 to 564 residues) using myelin basic protein as substrate after 40 mins by [gamma-33ATP] radiometric assay
Homeodomain-interacting protein kinase 2, sequence (Q9H2X6 whole entry, the tested form may be a part): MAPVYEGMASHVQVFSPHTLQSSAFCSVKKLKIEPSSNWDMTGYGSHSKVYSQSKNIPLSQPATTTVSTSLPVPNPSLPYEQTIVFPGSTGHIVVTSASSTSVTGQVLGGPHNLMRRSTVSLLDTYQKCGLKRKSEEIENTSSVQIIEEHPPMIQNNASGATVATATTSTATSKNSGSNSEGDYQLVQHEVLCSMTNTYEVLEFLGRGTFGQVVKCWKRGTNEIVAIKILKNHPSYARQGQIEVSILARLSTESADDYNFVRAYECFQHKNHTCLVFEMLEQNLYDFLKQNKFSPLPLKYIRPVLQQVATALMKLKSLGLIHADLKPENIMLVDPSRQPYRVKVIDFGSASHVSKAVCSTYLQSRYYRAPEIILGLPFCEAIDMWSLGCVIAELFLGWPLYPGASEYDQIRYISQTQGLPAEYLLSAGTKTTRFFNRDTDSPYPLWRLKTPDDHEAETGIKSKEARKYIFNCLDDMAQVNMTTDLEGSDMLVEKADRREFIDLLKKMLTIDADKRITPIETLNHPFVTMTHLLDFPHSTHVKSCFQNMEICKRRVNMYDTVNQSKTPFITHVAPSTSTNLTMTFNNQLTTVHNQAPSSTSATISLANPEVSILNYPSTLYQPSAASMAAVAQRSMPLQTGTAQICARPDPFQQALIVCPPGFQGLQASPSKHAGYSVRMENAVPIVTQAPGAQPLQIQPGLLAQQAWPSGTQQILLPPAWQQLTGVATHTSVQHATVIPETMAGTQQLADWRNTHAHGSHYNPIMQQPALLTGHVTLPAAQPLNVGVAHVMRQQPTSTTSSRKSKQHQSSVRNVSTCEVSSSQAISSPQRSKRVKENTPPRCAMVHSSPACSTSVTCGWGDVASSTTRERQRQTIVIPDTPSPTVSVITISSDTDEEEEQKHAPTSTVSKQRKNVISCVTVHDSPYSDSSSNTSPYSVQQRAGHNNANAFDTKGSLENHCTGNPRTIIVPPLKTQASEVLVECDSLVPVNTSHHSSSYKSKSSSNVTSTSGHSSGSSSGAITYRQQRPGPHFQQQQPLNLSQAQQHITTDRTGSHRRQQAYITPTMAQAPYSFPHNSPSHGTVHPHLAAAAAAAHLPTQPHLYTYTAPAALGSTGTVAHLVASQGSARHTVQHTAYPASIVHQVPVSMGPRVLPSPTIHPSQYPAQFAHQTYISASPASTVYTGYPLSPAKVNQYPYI

[5] = target: Tyrosine-protein kinase ZAP-70 (Homo sapiens, UniProt P43403); experiment: Inhibition of recombinant full length human ZAP70 using poly(Glu, Tyr) 4:1 as substrate incubated for 40 mins in presence of [gamma33P]ATP by radiometric scintillation counting analysis
[6] = target: Serine/threonine-protein kinase 17B (Homo sapiens, UniProt O94768); experiment: Inhibition of recombinant full length human DRAK2 using KKRPQRRYSNVF as substrate at 120 mins in presence of [gamma-33ATP] by radiometric scintillation counting analysis
Serine/threonine-protein kinase 17B, sequence (O94768 whole entry): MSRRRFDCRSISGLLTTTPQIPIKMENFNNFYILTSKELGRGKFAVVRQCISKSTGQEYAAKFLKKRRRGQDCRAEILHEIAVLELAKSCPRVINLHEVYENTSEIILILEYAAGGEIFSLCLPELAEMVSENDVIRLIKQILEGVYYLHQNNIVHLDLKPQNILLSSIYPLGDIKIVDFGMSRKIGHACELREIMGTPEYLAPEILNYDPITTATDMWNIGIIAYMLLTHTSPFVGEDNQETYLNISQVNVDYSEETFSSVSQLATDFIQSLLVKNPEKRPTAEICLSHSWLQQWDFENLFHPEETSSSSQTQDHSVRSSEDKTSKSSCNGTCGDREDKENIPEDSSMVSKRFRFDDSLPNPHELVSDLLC

[7] = target: NUAK family SNF1-like kinase 1 (Homo sapiens, UniProt O60285); experiment: Inhibition of human recombinant ARK5 (2 to end residues) using KKKVSRSGLYRSP as substrate incubated for 40 mins in presence of [gamma-33ATP] by radiometric scintillation counting analysis
[8] = target: STE20-like serine/threonine-protein kinase (Homo sapiens, UniProt Q9H2G2); experiment: Inhibition of recombinant human SLK (1 to 373 residues) using RLGRDKYKTLRQI as substrate incubated for 40 mins in presence of [gamma33P]ATP by radiometric scintillation counting analysis
[9] = target: Serine/threonine-protein kinase 10 (Homo sapiens, UniProt O94804); experiment: Inhibition of recombinant human LOK (1 to 348 residues) using RLGRDKYKTLRQI as substrate after 40 mins in presence of [gamma-33ATP] by radiometric scintillation counting analysis
[10] = target: Receptor-interacting serine/threonine-protein kinase 1 (Homo sapiens, UniProt Q13546); experiment: Inhibition of recombinant human RIPK1 (8 to 322 residues) using myelin basic protein as substrate incubated for 40 mins in presence of [gamma33P]ATP by radiometric scintillation counting analysis
Receptor-interacting serine/threonine-protein kinase 1, sequence (Q13546 whole entry, the tested form may be a part): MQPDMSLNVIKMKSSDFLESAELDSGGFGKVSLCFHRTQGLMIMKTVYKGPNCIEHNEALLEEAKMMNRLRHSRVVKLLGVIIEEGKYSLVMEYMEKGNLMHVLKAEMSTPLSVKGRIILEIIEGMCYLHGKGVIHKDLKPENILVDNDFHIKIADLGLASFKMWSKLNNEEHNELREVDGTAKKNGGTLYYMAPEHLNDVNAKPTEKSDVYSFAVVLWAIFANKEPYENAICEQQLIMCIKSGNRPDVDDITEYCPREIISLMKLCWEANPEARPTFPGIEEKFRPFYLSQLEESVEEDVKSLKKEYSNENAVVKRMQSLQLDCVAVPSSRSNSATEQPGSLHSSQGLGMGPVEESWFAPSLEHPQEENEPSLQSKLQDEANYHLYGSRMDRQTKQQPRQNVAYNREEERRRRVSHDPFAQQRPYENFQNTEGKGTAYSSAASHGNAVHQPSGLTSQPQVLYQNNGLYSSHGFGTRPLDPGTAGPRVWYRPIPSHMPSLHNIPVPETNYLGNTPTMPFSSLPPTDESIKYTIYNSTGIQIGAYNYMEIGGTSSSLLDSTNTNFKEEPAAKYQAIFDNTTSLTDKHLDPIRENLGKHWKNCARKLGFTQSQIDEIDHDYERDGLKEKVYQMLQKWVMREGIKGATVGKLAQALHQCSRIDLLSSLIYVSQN

Aurora kinase B = Aurora kinase B (Homo sapiens, UniProt Q96GD4); experiment: Inhibition of recombinant full length human AURORA-B using AKRRRLSSLRA as substrate incubated for 40 mins in presence of [gamma-33P]ATP and 10 uM ATP by radiometric scintillation counting analysis
Aurora kinase B, sequence (Q96GD4 whole entry): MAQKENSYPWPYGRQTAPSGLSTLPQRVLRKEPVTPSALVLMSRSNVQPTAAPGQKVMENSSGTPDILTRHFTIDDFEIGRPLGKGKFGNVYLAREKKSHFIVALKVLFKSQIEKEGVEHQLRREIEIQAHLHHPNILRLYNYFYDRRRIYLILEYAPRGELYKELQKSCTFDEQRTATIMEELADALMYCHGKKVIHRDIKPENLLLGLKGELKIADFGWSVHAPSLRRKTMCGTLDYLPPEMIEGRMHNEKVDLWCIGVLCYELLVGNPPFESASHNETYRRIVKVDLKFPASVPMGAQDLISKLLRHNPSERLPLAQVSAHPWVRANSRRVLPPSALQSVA

[11] = target: Serine/threonine-protein kinase 32B (Homo sapiens, UniProt Q9NY57); experiment: Inhibition of recombinant human full length STK32B using casein as substrate incubated for 40 mins in presence of [gamma33P]ATP by radiometric scintillation counting analysis
Serine/threonine-protein kinase 32B, sequence (Q9NY57 whole entry): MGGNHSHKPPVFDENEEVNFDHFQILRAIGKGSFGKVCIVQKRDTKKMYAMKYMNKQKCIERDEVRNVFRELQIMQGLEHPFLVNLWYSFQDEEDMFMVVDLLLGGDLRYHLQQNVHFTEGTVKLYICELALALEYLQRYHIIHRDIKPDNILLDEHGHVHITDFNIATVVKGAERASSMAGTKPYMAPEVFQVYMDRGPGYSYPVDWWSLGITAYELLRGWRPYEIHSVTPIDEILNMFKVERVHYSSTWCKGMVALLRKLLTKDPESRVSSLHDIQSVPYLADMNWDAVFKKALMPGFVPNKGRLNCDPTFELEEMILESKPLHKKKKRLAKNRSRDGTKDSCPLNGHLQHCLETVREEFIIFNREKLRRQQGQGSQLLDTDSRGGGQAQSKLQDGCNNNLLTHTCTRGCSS

[12] = target: Protein kinase C epsilon type (Homo sapiens, UniProt Q02156); experiment: Inhibition of recombinant human PKCepsilon (2 to end residues) using ERMRPRKRQGSVRR as substrate incubated for 40 mins in presence of [gamma33P]ATP by radiometric scintillation counting analysis
TGF-beta receptor type-2 = TGF-beta receptor type-2 (Homo sapiens, UniProt P37173); experiment: Inhibition of recombinant human TGFBR2 (188 to end residues) using MBP as substrate incubated for 120 mins in presence of [gamma33P]ATP by radiometric scintillation counting analysis
[13] = target: Hepatocyte growth factor receptor (Homo sapiens, UniProt P08581, A1209G/V1290L); experiment: Inhibition of recombinant human MET A1209G/V1290L double mutant (974 to end residues) using KKKGQEEEYVFIE as substrate incubated for 40 mins in presence of [gamma-33ATP by radiometric scintillation counting analysis
[14] = target: Macrophage-stimulating protein receptor (Homo sapiens, UniProt Q04912); experiment: Inhibition of recombinant human Ron (983 to end residues) using GGMEDIYFEFMGGKKK as substrate incubated for 40 mins in presence of [gamma33P]ATP by radiometric scintillation counting analysis
[15] = target: Homeodomain-interacting protein kinase 1 (Homo sapiens, UniProt Q86Z02); experiment: Inhibition of human recombinant HIPK1 (158 to 555 residues) using myelin basic protein as substrate after 40 mins by [gamma-33ATP] radiometric assay
[16] = target: Eukaryotic translation initiation factor 2-alpha kinase 1 (Homo sapiens, UniProt Q9BQI3); experiment: Inhibition of human recombinant HRI (140 to end residues) using RSRSRSRSRSRSR as substrate after 120 mins by [gamma-33ATP] radiometric assay
Eukaryotic translation initiation factor 2-alpha kinase 1, sequence (Q9BQI3 whole entry, the tested form may be a part): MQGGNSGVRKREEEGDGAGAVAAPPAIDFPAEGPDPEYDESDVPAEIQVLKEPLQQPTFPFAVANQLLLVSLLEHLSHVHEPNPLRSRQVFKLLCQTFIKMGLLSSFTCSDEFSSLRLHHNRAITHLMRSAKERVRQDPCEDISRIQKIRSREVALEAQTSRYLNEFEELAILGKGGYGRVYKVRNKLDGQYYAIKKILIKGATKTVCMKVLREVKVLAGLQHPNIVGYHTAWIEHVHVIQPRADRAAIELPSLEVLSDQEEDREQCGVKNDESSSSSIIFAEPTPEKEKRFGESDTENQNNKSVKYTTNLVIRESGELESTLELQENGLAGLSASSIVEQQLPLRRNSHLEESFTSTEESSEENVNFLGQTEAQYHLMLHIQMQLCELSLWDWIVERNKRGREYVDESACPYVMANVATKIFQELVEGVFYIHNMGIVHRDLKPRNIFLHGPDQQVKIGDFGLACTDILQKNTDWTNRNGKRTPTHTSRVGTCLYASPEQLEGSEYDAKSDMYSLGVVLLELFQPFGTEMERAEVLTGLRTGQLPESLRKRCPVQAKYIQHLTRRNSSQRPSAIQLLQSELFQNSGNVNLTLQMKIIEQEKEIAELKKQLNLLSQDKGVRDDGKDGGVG

[17] = target: Death-associated protein kinase 1 (Homo sapiens, UniProt P53355); experiment: Inhibition of recombinant human DAPK1 (1 to 296 residues) using KKLNRTLSFAEPG as substrate incubated 40 mins in presence of [gamma-33ATP] by radiometric scintillation counting analysis
[18] = target: Casein kinase I isoform delta (Homo sapiens, UniProt P48730); experiment: Inhibition of recombinant human CK1delta (1 to 294 residues) using KRRRALS(p)VAS as substrate incubated for 40 mins in presence of [gamma-33ATP] by radiometric scintillation counting analysis
Casein kinase I isoform delta, sequence (P48730 whole entry, the tested form may be a part, canonical isoform): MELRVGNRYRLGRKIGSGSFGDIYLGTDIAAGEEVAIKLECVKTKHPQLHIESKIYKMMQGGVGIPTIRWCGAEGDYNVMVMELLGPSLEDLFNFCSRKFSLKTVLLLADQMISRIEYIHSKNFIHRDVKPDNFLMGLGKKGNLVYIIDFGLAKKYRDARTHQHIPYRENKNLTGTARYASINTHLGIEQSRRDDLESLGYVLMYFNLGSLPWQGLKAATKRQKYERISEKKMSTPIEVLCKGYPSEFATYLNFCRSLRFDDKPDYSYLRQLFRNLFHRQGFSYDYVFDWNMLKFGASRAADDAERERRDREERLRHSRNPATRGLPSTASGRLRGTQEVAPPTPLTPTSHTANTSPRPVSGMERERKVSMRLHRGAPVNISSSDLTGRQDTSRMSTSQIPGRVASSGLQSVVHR

[19] = target: Macrophage colony-stimulating factor 1 receptor (Homo sapiens, UniProt P07333, Y969C); experiment: Inhibition of recombinant human FMS Y969C mutant (538 to end residues) using EEEEYEEEEEEYY as substrate after 40 mins in presence of [gamma-33ATP] by radiometric scintillation counting analysis
[20] = target: Inhibitor of nuclear factor kappa-B kinase subunit alpha (Homo sapiens, UniProt O15111); experiment: Inhibition of recombinant full length human IKKalpha using peptide substrate after 40 mins by [gamma-33ATP]by radiometric scintillation counting analysis
[21] = target: Discoidin domain-containing receptor 2 (Homo sapiens, UniProt Q16832); experiment: Inhibition of recombinant human DDR2 S642A mutant (467 to end residues) using KKSRGDYMTMQIG as substrate after 40 mins in presence of [gamma-33ATP] by radiometric scintillation counting analysis
Discoidin domain-containing receptor 2, sequence (Q16832 whole entry, the tested form may be a part): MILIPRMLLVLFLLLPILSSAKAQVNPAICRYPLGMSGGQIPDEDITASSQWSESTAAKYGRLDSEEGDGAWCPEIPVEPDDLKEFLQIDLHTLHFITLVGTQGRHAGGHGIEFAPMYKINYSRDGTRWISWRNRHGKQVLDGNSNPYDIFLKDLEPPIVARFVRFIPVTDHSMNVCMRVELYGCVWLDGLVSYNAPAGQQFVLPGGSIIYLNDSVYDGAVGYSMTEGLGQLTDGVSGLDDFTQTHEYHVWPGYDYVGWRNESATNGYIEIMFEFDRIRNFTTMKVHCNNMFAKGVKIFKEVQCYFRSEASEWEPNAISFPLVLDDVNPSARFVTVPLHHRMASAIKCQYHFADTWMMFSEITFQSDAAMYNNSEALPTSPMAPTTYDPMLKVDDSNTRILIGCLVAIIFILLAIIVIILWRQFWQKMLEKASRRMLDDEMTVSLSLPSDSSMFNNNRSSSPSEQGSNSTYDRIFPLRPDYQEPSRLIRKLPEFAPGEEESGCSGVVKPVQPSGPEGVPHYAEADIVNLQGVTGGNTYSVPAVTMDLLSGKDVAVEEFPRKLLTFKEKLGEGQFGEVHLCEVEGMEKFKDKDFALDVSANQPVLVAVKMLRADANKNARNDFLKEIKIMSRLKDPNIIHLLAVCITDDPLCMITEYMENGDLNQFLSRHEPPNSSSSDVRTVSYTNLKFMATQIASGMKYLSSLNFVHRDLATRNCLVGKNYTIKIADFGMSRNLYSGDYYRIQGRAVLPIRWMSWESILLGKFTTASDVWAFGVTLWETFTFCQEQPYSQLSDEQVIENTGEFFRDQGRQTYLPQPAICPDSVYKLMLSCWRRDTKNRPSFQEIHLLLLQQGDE

Question: With CN(C)c1ccc(C(=O)Nc2cccc(NC(=O)COc3ccc4c(=O)ccoc4c3)c2)cc1 as the molecule, how does the IC50 (CDK3/Cyclin E) read?
Answer: > 10 µM

Question: What about the IC50 (Activated CDC42 kinase 1) of the same molecule?
Answer: > 10 µM

Question: And the IC50 [1]?
Answer: > 10 µM

Question: And the IC50 [2]?
Answer: > 10 µM

Question: What about the IC50 [3] of the same molecule?
Answer: > 10 µM

Question: And the IC50 [4]?
Answer: > 10 µM

Question: And the IC50 [5]?
Answer: > 10 µM

Question: What about the IC50 [6] of the same molecule?
Answer: > 10 µM

Question: What about the IC50 [7] of the same molecule?
Answer: > 10 µM

Question: And the IC50 [8]?
Answer: > 10 µM

Question: And the IC50 [9]?
Answer: > 10 µM

Question: And the IC50 [10]?
Answer: > 10 µM

Question: And the IC50 (Aurora kinase B)?
Answer: 1.24 µM

Question: And the IC50 [11]?
Answer: > 10 µM

Question: What about the IC50 [12] of the same molecule?
Answer: > 10 µM

Question: And the IC50 (TGF-beta receptor type-2)?
Answer: > 10 µM

Question: What about the IC50 [13] of the same molecule?
Answer: > 10 µM

Question: And the IC50 [14]?
Answer: > 10 µM

Question: And the IC50 [15]?
Answer: > 10 µM

Question: What about the IC50 [16] of the same molecule?
Answer: > 10 µM

Question: What about the IC50 [17] of the same molecule?
Answer: > 10 µM

Question: What about the IC50 [18] of the same molecule?
Answer: > 10 µM

Question: And the IC50 [19]?
Answer: > 10 µM

Question: And the IC50 [20]?
Answer: > 10 µM

Question: What about the IC50 [21] of the same molecule?
Answer: > 10 µM
